Values after ≈ are worked out from the molar mass of the structure shown. Like-named read-outs stand apart in the source and are kept apart here.
What was measured:
Format in all cases: cell-based
[1] = tested on: Staphylococcus aureus FDA 209P; assay: MIC against Staphylococcus aureus FDA 209P
Source text: (§1) Below are described the antibacterial activities of the compounds in the compositions according to this invention.
(§2) The testing method complied with the standard method of Japan Sociaty of Chemotherapy.

Escherichia coli NIHJ = assay: MIC against Escherichia coli NIHJ
Source text: as §1, §2

[2] = tested on: Desulfovibrio desulfuricans IFO 13699; assay: MIC against Desulfovibrio desulfuricans
Source text: as §1, §2

[3] = Staphylococcus aureus, FDA209P, 24 h
[4] = Desulfovibrio desulfuricans, IFO13699, 24 h
[5] = Escherichia coli, Table 1, azaalkenelactams, heart infusion agar, 37° C., 24 hours, read-out: MIC
[6] = Escherichia coli, Table 2, derivatives having a carboxylate radical, heart infusion agar, 37° C., 24 hours, read-out: MIC
[7] = Staphylococcus aureus, FDA209P, Table 1, azaalkenelactams, heart infusion agar, 37° C., 24 hours, read-out: MIC
[8] = Table 2, derivatives having a carboxylate radical, heart infusion agar, 37° C., 24 hours

| Compound | MIC [1, 3] [µg/mL] | MIC (Escherichia coli NIHJ; Escherichia coli, 24 h) [µg/mL] | MIC [2, 4] [µg/mL] | other results |
| --- | --- | --- | --- | --- |
| CCCCCCCCCCCCCCC(O)CNCCN1CCC[N+](CC(=O)[O-])=CC(C)(C)C1=O (stereo not drawn) [1-(2-hydroxyhexadecyl)aminoethyl-3,3-dimethyl-1-aza-5-azoniacyclooct-4-en-2-one-5-acetate] | 12.5 (≈ 25.2 µM) | 100 (≈ 202 µM) | 12.5 (≈ 25.2 µM) |  |
| CCCCCCCCCCCC(=O)OCCN1CCN=C(C)CC1=O [Example 12, 4-lauroyloxyethyl-7-methyl-3,6-dihydro-2H-1,4-diazepin-5-one] | 100 (≈ 284 µM) |  | 12.5 (≈ 35.5 µM) | MIC (Escherichia coli NIHJ; [5]): 1600 µg/mL (≈ 4540 µM) |
| CCCCCCCCCc1ccc(OCCOCCN2CCCN=CC(C)(C)C2=O)cc1 [Example 62, 1-nonylphenylpoly(2 moles)oxyethyleneoxyethyl-3,3-dimethyl-6,7,8-trihydro-1,5-diazocin-5-one] | 100 (≈ 225 µM) | 200 (≈ 450 µM) | 50 (≈ 112 µM) |  |
| CCCCCCCC(=O)NCCN1CCN=CCCC1=O [Example 56, 4-octamidoethyl-2,3,6,7-tetrahydro-1,4-diazocin-5-one] | 200 (≈ 677 µM) | 100 (≈ 338 µM) | 50 (≈ 169 µM) |  |
| CCCCCCCCCCC(O)CN1CCN=C(C)CC1=O (stereo not drawn) [Example 26, 4-(2-hydroxy)dodecyl-7-methyl-3,6-dihydro-2H-1,4-diazepin-5-one] | 50 (≈ 161 µM) | 50 (≈ 161 µM) | 12.5 (≈ 40.3 µM) |  |
| CCCCCCCCCCCCN1CC[N+](CC(=O)[O-])=CC(C)C1=O (stereo not drawn) [4-dodecyl-6-methyl-1-azonia-4-azacyclohept-7-en-5-one-1-acetate] | 25 (≈ 70.9 µM) |  | 25 (≈ 70.9 µM) | MIC (Escherichia coli NIHJ; [6]): 800 µg/mL (≈ 2270 µM) |
| CCCCCCCCOCCCN1CCN=C(C)CC1=O [Example 8, 4-octoxypropyl-7-methyl-3,6-dihydro-2H-1,4-diazepin-5-one] | 50 (≈ 169 µM) |  | 50 (≈ 169 µM) | MIC (Escherichia coli NIHJ; [5]): 800 µg/mL (≈ 2700 µM) |
| CCCCCCCC/C=C\CCCCCCCC(=O)OCCN1CC[N+](CC(=O)[O-])=C(C)CC1=O [4-oleoyloxyethyl-7-methyl-1-azonia-4-azacyclohept-7-en-5-one-1-acetate] | 200 (≈ 406 µM) |  | 25 (≈ 50.7 µM) | MIC (Escherichia coli NIHJ; [6]): 3200 µg/mL (≈ 6490 µM) |
| CCCCCCCC(=O)NCCN1CC[N+](C(C)C(=O)[O-])=CCCC1=O (stereo not drawn) [4-octamidoethyl-4-aza-1-azoniacyclooct-8-en-5-one-1-propionate] | 400 (≈ 1090 µM) | 200 (≈ 544 µM) | 50 (≈ 136 µM) |  |
| CCCCCCCCCCCC(=O)OCCN1CCCN=C(C)CC1=O [Example 14, 1-lauroyloxyethyl-4-methyl-3,6,7,8-tetrahydro-1,5-diazocin-2-one] |  |  | 12.5 (≈ 34.1 µM) | MIC [1, 7]: 100 µg/mL (≈ 273 µM); MIC (Escherichia coli NIHJ; [5]): 1600 µg/mL (≈ 4370 µM) |
| CCCCCCCCCc1ccc(OCC(O)CNCCNCCNCCN2CC[N+](CC(=O)[O-])=C(C)CC2=O)cc1 (stereo not drawn) [4-nonylphenoxy(2-hydroxy)propylaminoethylaminoethylaminoethyl-7-methyl-1-azonia-4-azacyclohept-7-en-5-one-1-acetate] | 100 (≈ 170 µM) |  | 50 (≈ 84.8 µM) | MIC (Escherichia coli NIHJ; [6]): 800 µg/mL (≈ 1360 µM) |
| CCCCCCCC(=O)NCCN1CCN=C(C)CC1=O [Example 23, 4-octamidoethyl-7-methyl-3,6-dihydro-2H-1,4-diazepin-5-one] | 25 (≈ 84.6 µM) | 25 (≈ 84.6 µM) | 50 (≈ 169 µM) |  |
| CCCCCCCCC=CCCCCCCCCN1CC[N+](CC(=O)[O-])=CCCC1=O [4-(9-octadecenyl)-4-aza-1-azoniacyclooct-8-en-5-one-1-acetate] | 200 (≈ 460 µM) | 400 (≈ 920 µM) | 50 (≈ 115 µM) |  |
| CCCCCCCCCCCCCCNCCN1CC[N+](CC(=O)[O-])=CC(C)C1=O (stereo not drawn) [4-tetradecylaminoethyl-6-methyl-1-azonia-4-azacyclohept-7-en-5-one-1-acetate] | 6.25 (≈ 14.8 µM) | 100 (≈ 236 µM) | 6.25 (≈ 14.8 µM) |  |
| 4-octoxy(2-hydroxy)propyl-7-methyl-1-azonia-4-azacyclohept-7-en-5-one-1-acetate |  |  |  | MIC [1]: 100 µg/mL; MIC (Escherichia coli NIHJ; [8]): 800 µg/mL; MIC [2]: 25 µg/mL |
| CCCCCCCCCCCCCCNCCN1CCC[N+](C(C)C(=O)[O-])=CC(C)(C)C1=O (stereo not drawn) [1-tetradecylaminoethyl-3,3-dimethyl-1-aza-5-azoniacyclooct-4-en-2-one-5-propionate] | 12.5 (≈ 26.8 µM) | 100 (≈ 215 µM) | 6.25 (≈ 13.4 µM) |  |

| Compound | MIC [1, 3] [µg/mL] | MIC (Escherichia coli NIHJ; Escherichia coli, 24 h) [µg/mL] | MIC [2, 4] [µg/mL] | other results |
| --- | --- | --- | --- | --- |
| CCCCCCCCCCCCNCCNCCNCCCN1CCCN=C(C)CC1=O [Example 38, 1-dodecylaminoethylaminoethylaminopropyl-4-methyl-3,6,7,8-tetrahydro-1,5-diazocin-2-one] | 12.5 (≈ 27.7 µM) | 50 (≈ 111 µM) | 25 (≈ 55.3 µM) |  |
| CCCCCCCCCCCC(=O)NCCN1CCN=CC(C)C1=O (stereo not drawn) [Example 46, 4-lauramidoethyl-6-methyl-3,6-dihydro-2H-1,4-diazepin-5-one] | 6.25 (≈ 17.8 µM) | 25 (≈ 71.1 µM) | 6.25 (≈ 17.8 µM) |  |
| CCCCCCCCCCCCC(O)CNCCN1CCN=C(C)CC1=O (stereo not drawn) [Example 28, 4-(2-hydroxytetradecyl)aminoethyl-7-methyl-3,6-dihydro-2H-1,4-diazepin-5-one] | 25 (≈ 65.5 µM) | 25 (≈ 65.5 µM) |  | MIC ([2]; Desulfovibrio desulfuricans, IFO13699, Table 1, azaalkenelactams, heart infusion agar, 37° C., 24 hours, read-out: MIC): 12.5 µg/mL (≈ 32.8 µM) |
| CCCCCCCCCCCCOCC(O)CN1CCCN=C(C)CC1=O (stereo not drawn) [Example 33, 1-docoxy(2-hydroxy)propyl-4-methyl-3,6,7,8-tetrahydro-1,5-diazocin-2-one] | 25 (≈ 65.3 µM) | 400 (≈ 1050 µM) | 25 (≈ 65.3 µM) |  |
| CCCCCCCCCCCCCCCCCCCCCC(=O)OCCN1CCN=CCCC1=O [Example 57, 4-behenoyloxyethyl-2,3,6,7-tetrahydro-1,4-diazocin-5-one] | 100 (≈ 203 µM) | 100 (≈ 203 µM) | 12.5 (≈ 25.4 µM) |  |
| CCCCCCCCCCC(O)CN1CC[N+](CC(=O)[O-])=C(C)CC1=O (stereo not drawn) [4-(2-hydroxy)dodecyl-7-methyl-1-azonia-4-azacyclohept-7-en-5-one-1-acetate] | 100 (≈ 271 µM) | 200 (≈ 543 µM) | 6.25 (≈ 17 µM) |  |
| CCCCCCCCC=CCCCCCCCCN1CCCN=C(C)CC1=O [Example 4, 1-(9-octadecenyl)-4-methyl-3,6,7,8-tetrahydro-1,5-diazocin-2-one] | 25 (≈ 64 µM) |  | 12.5 (≈ 32 µM) | MIC (Escherichia coli NIHJ; [5]): 800 µg/mL (≈ 2050 µM) |
| 4-methylbenzylpoly(2 moles)oxypropyleneoxypropyl-6-methyl-4-aza-1-azoniacyclooct-8-en-5-one-1-acetate |  |  |  | MIC [1]: 400 µg/mL; MIC (Escherichia coli NIHJ; [8]): 800 µg/mL; MIC [2]: 25 µg/mL |
| CCCCCCCCCCCCCCC(O)CNCCN1CC[N+](CC(=O)[O-])=CCC(C)C1=O (stereo not drawn) [4-(2-hydroxyhexadecyl)aminoethyl-6-methyl-4-aza-1-azoniacyclooct-8-en-5-one-1-acetate] | 25 (≈ 51.9 µM) | 100 (≈ 208 µM) | 25 (≈ 51.9 µM) |  |
| CCCCCCCCCCC(O)CN1CCN=CC(C)C1=O (stereo not drawn) [Example 43, 4-(2-hydroxy)dodecyl-6-methyl-3,6-dihydro-2H-1,4-diazepin-5-one] | 12.5 (≈ 40.3 µM) | 400 (≈ 1290 µM) | 12.5 (≈ 40.3 µM) |  |
| CCCCCCCCCCCCN1CCC[N+](CC(=O)[O-])=C(C)CC1=O [1-dodecyl-4-methyl-1-aza-5-azoniacyclooct-4-en-2-one-5-acetate] | 100 (≈ 273 µM) |  | 12.5 (≈ 34.1 µM) | MIC (Escherichia coli NIHJ; [6]): 3200 µg/mL (≈ 8730 µM) |
| CCCCCCCCCCCCNC(=O)CCC [Laurylbutylamide, reference compound] |  |  | 400 (≈ 1570 µM) | MIC [1, 7]: ≥ 10000 µg/mL; MIC (Escherichia coli NIHJ; [5]): ≥ 10000 µg/mL |
| 4-(2-hydroxyhexadecyl)aminoethyl-6-methyl-1-azonia-4-azacyclohept-7-en-5-one-1-acetate |  |  |  | MIC [1]: 12.5 µg/mL; MIC (Escherichia coli NIHJ): 100 µg/mL; MIC [2, 8]: 3.12 µg/mL |
| CCCCCCCC(=O)OCCN1CC[N+](CC(=O)[O-])=C(C)CC1=O [4-octoyloxyethyl-7-methyl-1-azonia-4-azacyclohept-7-en-5-one-1-acetate] |  |  | 50 (≈ 141 µM) | MIC ([1]; Staphylococcus aureus, FDA209P, Table 2, derivatives having a carboxylate radical, heart infusion agar, 37° C., 24 hours, read-out: MIC): 800 µg/mL (≈ 2260 µM); MIC (Escherichia coli NIHJ; [6]): 3200 µg/mL (≈ 9030 µM) |
| CCCCCCCCCc1ccc(OCC(O)CNCCNCCNCCN2CCN=CCC(C)C2=O)cc1 (stereo not drawn) [Example 69, 4-nonylphenoxy(2-hydroxy)propylaminoethylaminoethylaminoethyl-6-methyl-2,3,6,7-tetrahydro-1,4-diazocin-5-one] | 200 (≈ 366 µM) | 200 (≈ 366 µM) | 50 (≈ 91.6 µM) |  |
| CCCCCCCCCCCCN1CCCN=CC(C)C1=O (stereo not drawn) [Example 44, 1-dodecyl-3-methyl-3,6,7,8-tetrahydro-1,5-diazocin-2-one] | 50 (≈ 162 µM) |  | 25 (≈ 81 µM) | MIC (Escherichia coli NIHJ; [5]): 800 µg/mL (≈ 2590 µM) |
